Data taken from patent US9439906B2, “Dosing regimen associated with long acting injectable paliperidone esters” (Janssen Pharmaceutica NV, priority 2007, dated 2016).

Legend:
[1] = Pharmacokinetic profile of gluteal versus deltoid i.m. injections of paliperidone palmitate 100 mg-eq. (four injections); assay type: in vivo, human
Description: This study was performed to characterize and compare the pharmacokinetic profile of paliperidone palmitate (formulated as described above) following four intramuscular injections in the deltoid or gluteal muscle.
Plasma samples for pharmacokinetic analyses were collected.

[2] = Treatment-emergent adverse events in the single-dose dose-proportionality study; details: single dose 25-150 mg-eq.
Description: The subjects were assigned into eight treatment groups: paliperidone palmitate 25 (n=48), 50 (n=50), 100 (n=51) or 150 (n=52) mg-eq. injected into either the deltoid or gluteal muscle.

[3] = tested on: subjects with schizophrenia; experiment: Efficacy in phase 3 placebo-controlled study R092670-PSY-3007 (PANSS, PSP, CGI-S); assay type: in vivo, human; details: for PANSS Total Score End point Mean (SD): LOCF; for PANSS Total Score Change from Baseline Mean (SD): end point LOCF, placebo −2.9; for mean improvement in the PSP score from baseline to end point: placebo 1.7; for subjects who achieved responder status (30% or larger decrease on PANSS total scores): placebo 20.0%
Text: The study included a screening period of up to 7 days and a 13-week double-blind treatment period. The screening period included a washout of disallowed psychotropic medications. […] Subjects who had source documentation of previous exposure to the above medications and were currently taking another antipsychotic regimen continued their current treatment through Day-1. At the beginning of the double-blind treatment period, subjects were randomly assigned in a 1:1:1:1 ratio to 1 of 4 treatment groups: placebo or paliperidone palmitate 25 mg eq., 100 mg eq., or 150 mg eq. Study medication was administered as 4 doses: an initial i.m. injection of 150 mg eq. of paliperidone palmitate or placebo followed by 3 fixed i.m. doses of placebo or paliperidone palmitate [25, 100, or 150 mg eq.] on Days 8, 36, and 64. The initial injection of study medication was given in the deltoid muscle. Subsequent injections were given either in the deltoid or gluteal muscle at the discretion of the investigator. Randomized subjects were to remain in the study for 28 days after the last injection on Day 64 with the end of study visit scheduled for Day 92 during the double-blind period. The entire study, including the screening period, lasted approximately 14 weeks. Samples for pharmacokinetic (PK) evaluation were collected on Day 1, prior to the first injection and on Days 2, 4, 6, 8, 15, 22, 36, 64 and 92. Efficacy and safety were evaluated regularly throughout the study. A pharmacogenomic blood sample (10 mL) was collected from subjects who gave separate written informed consent for this part of the study. Participation in the pharmacogenomic research was optional. Approximately 105 to 115 mL of whole blood was collected during the study. The primary endpoint was the change in the PANSS total score from baseline (i.e., the start of double-blind treatment, Day 1) to the end of the double-blind treatment period (i.e., Day 92 or the last post baseline assessment). The key secondary efficacy endpoint was the change in the Personal and Social Performance Scale (PSP) from baseline to the end of the double-blind treatment period. The other secondary efficacy endpoint was the change in the Clinical Global Impression-Severity (CGI-S) scores from baseline to the end of the double-blind treatment period. Other endpoints included the change from baseline in subject ratings of sleep quality and daytime drowsiness using a visual analogue scale (VAS), the onset of therapeutic effect, responder rate, and the change from baseline to end point in PANSS subscales and […] factors. All randomized subjects who received at least 1 dose of double-blind study drug and had both baseline and at least one post baseline efficacy measurement (PANSS, PSP, or CGI-S) during the double-blind treatment period were included in the intent-to-treat efficacy analyses. […] This procedure is referred to as the Dunnett-Bonferroni-based parallel gatekeeping procedure. The change from baseline in PANSS total score at each visit and at end point was analyzed using an analysis of covariance (ANCOVA) model. The last observation carried forward (LOCF) method was used. The model included treatment and country as factors and baseline PANSS total score as a covariate. Treatment effect was based on the difference in least-squares mean change. […] Treatment-by-country and treatment-by-baseline PANSS total score interactions were explored using the same ANCOVA model as the one for the analysis of the primary endpoint. If either term was statistically significant at the predefined 2-sided significance level of 0.10, further evaluations of the effect of other covariates were to be performed to assess the nature of the interaction and identify possible causes. […] The analysis of the key secondary endpoint, change in PSP score at end point, was conducted by means of an ANCOVA model with treatment and country as factors and the baseline score as the covariate. […]

[4] = Safety in phase 3 placebo-controlled study R092670-PSY-3007; assay type: in vivo, human; details: for average increase in body weight: placebo −0.2 kg; for Akathisia (EPS-related adverse event): placebo 4.9%; for mean change in BMI from baseline to end point: placebo −0.1
Description: Safety was monitored by the evaluation of adverse events, extrapyramidal symptom (EPS) rating scales (Abnormal Involuntary Movement Scale [AIMS], Barnes Akathisia Rating Scale [BARS], Simpson and Angus Rating Scale [SAS]) scores, clinical laboratory test results, vital signs measurements, electrocardiograms (ECGs), and physical examination findings. In addition, the tolerability of injections was assessed; the investigators evaluated injection sites and the subjects assessed injection pain.
The number and percentage of subjects with treatment-emergent adverse events were summarized. Adverse events of potential clinical interest were summarized separately, including events related to EPS or changes in serum glucose or prolactin levels.
Changes from baseline in clinical laboratory tests, vital sign measurements, ECGs, body weight, BMI, and EPS scale scores were summarized by treatment group. Prolactin levels were summarized by sex. Subjects with potentially abnormal values or changes in clinical laboratory tests, vital signs, orthostatic parameters, and ECG parameters were summarized based on predefined criteria. Frequency distributions were presented for the investigator's evaluation of the injection site, and descriptive statistics were presented for VAS scores corresponding to the subject's evaluation of injection pain.

CCCCCCCCCCCCCCCC(=O)OC1CCCn2c1nc(C)c(CCN1CCC(c3noc4cc(F)ccc34)CC1)c2=O (racemic) [paliperidone palmitate, (±)-3-[2-[4-(6-fluoro-1,2-benzisoxazol-3-yl)-1-piperidinyl]ethyl]-6,7,8,9-tetrahydro-2-methyl-4-oxo-4H-pyrido[1,2-α]pyrimidin-9-yl hexadecanoate]
median AUC∞, deltoid versus gluteal ([1]; after four injections): similar
Relative exposure after the fourth injection versus after the second injection ([1]; both deltoid and gluteal): slightly lower
Treatment-emergent AE: headache [2]: 7%
Treatment-emergent AE: insomnia [2]: 5%
Treatment-emergent AE: schizophrenia [2]: 6%
Treatment-emergent AE: tachycardia [2]: 10%
deaths [2]: No deaths
subjects discontinued due to TEAs [2]: 2%
earliest time point of statistically significant improvement over placebo in change in PANSS total score ([3]; 25 mg eq. and 150 mg eq. groups): Day 8
PANSS Total Score change, Diff of LS Means (SE) versus placebo ([3]; 25 mg eq. group): −5.1 (2.01)
PANSS Total Score End point Mean (SD) ([3]; 25 mg eq. group (150 mg eq. Day 1, then 25 mg eq. Days 8, 36, 64)): 78.8 (19.88)
PANSS Total Score Change from Baseline Mean (SD) ([3]; 25 mg eq. group): −8.0 (19.90)
mean improvement in the PSP score from baseline to end point ([3]; 25 mg eq. group): 2.9
subjects who achieved responder status (30% or larger decrease on PANSS total scores) ([3]; 25 mg eq. group): 33.5%
PANSS Total Score change, Diff of LS Means (SE) versus placebo ([3]; 100 mg eq. group): −8.7 (2.00)
PANSS Total Score End point Mean (SD) ([3]; 100 mg eq. group (150 mg eq. Day 1, then 100 mg eq. Days 8, 36, 64)): 74.6 (18.06)
PANSS Total Score Change from Baseline Mean (SD) ([3]; 100 mg eq. group): −11.6 (17.63)
mean improvement in the PSP score from baseline to end point ([3]; 100 mg eq. group): 6.1
subjects who achieved responder status (30% or larger decrease on PANSS total scores) ([3]; 100 mg eq. group): 41.0%
PANSS Total Score change, Diff of LS Means (SE) versus placebo ([3]; 150 mg eq. group): −9.8 (2.00)
PANSS Total Score End point Mean (SD) ([3]; 150 mg eq. group (150 mg eq. Days 1, 8, 36, 64)): 75.2 (18.59)
PANSS Total Score Change from Baseline Mean (SD) ([3]; 150 mg eq. group): −13.2 (18.48)
mean improvement in the PSP score from baseline to end point ([3]; 150 mg eq. group): 8.3
subjects who achieved responder status (30% or larger decrease on PANSS total scores) ([3]; 150 mg eq. group): 40.0%
time point as of which improvement over placebo in change in PANSS total score was statistically significant ([3]; all 3 dose groups): Day 22
1 or more serious TEAE, (%) ([4]; 25 mg eq. group (N = 160)): (9.4) %
Possibly related TEAE, (%) ([4]; 25 mg eq. group (N = 160)): (28.1) %
TEAE leading to permanent stop, (%) ([4]; 25 mg eq. group (N = 160)): (6.3) %
TEAE, (%) ([4]; 25 mg eq. group (N = 160)): (63.1) %
average increase in body weight ([4]; 25 mg eq. group, 13 weeks): 0.4 kg
Akathisia (EPS-related adverse event) ([4]; 25 mg eq. group): 1.3%
mean change in BMI from baseline to end point ([4]; 25 mg eq. group): 0.1 kg/m^2
1 or more serious TEAE, (%) ([4]; 100 mg eq. group (N = 165)): (13.3) %
Possibly related TEAE, (%) ([4]; 100 mg eq. group (N = 165)): (29.7) %
TEAE leading to permanent stop, (%) ([4]; 100 mg eq. group (N = 165)): (6.1) %
TEAE, (%) ([4]; 100 mg eq. group (N = 165)): (60.0) %
average increase in body weight ([4]; 100 mg eq. group, 13 weeks): 0.7 kg
Akathisia (EPS-related adverse event) ([4]; 100 mg eq. group): 4.8%
mean change in BMI from baseline to end point ([4]; 100 mg eq. group): 0.3 kg/m^2
tolerability ([4]; 150 mg eq. deltoid then 25, 100 or 150 mg eq. Days 8, 36, 64, 13 weeks): generally well tolerated
1 or more serious TEAE, (%) ([4]; 150 mg eq. group (N = 163)): 8.0%
Possibly related TEAE, (%) ([4]; 150 mg eq. group (N = 163)): 31.3%
TEAE leading to death, (%) ([4]; 150 mg eq. group (N = 163)): 0.6%
TEAE leading to permanent stop, (%) ([4]; 150 mg eq. group (N = 163)): 8.0%
TEAE, (%) ([4]; 150 mg eq. group (N = 163)): 63.2%
average increase in body weight ([4]; 150 mg eq. group, 13 weeks): 1.4 kg
Akathisia (EPS-related adverse event) ([4]; 150 mg eq. group): 5.5%
mean change in BMI from baseline to end point ([4]; 150 mg eq. group): 0.5 kg/m^2
Local injection site tolerability ([4]; all dose groups): good
incidence of treatment-emergent EPS-related adverse events ([4]; all dose groups): low and comparable to placebo
ECG: clinically significant QTc prolongation ([4]; doses up to 150 mg eq.): did not demonstrate evidence of clinically significant QTc prolongation
subjects with maximum QTcLD value >480 ms or maximal change in QTcLD >60 ms ([4]; during the study): No subject
subjects with weight increase of at least 7% relative to baseline ([4]; highest dose (150 mg eq.), placebo 5%): 13%
prolactin levels ([4]; versus placebo, largest increase in the 150 mg eq. group): increases in prolactin levels were observed with greater frequency
